Each structure is given as a SMILES string. Values after ≈ are worked out from the molar mass of the structure shown.

The data set is described as follows: Aqueous solubility of photo-initiator. It is filed as physicochemical. The procedure: Pre-weighed silicone disks (approximately 0.7 cm in diameter, 0.2 cm in thickness) or cylindrical sections (approximately 0.5 cm in diameter, 1 cm in length) were incubated in a methanol solution of photo-initiator (BPB; or p-benzoyl benzoic acid, BBA) for 1 hour followed by air drying at about 40° C. for 2 hours. Samples were then suspended in vials containing 3 mL of aqueous monomer solution. When required, monomer solutions were saturated with BPB. The aqueous solubility of BPB was 4 μg/mL. All solutions were filtered through 0.22 μm pore filters prior to being flushed with nitrogen for 15 min. Vials were sealed with rubber septa and placed 2.5 cm beneath a pair of UVA bulbs (15 W ea.). Radiation intensity at the sample site was 3.8 mW/cm2 as determined by UV actinometry (16). After completion of the graft polymerization reaction, samples were briefly washed under running water with occasional scrubbing to remove any signs of adsorbed homopolymer. The remaining non-grafted material was removed by overnight incubation in 50% ethanol followed by a 4 hour incubation in water. Samples were dried in a 60° C. oven for 16 hours before their weights were determined using a microbalance. Quadruplicate samples of each treatment were analysed in all experiments.

Regarding `CC(C)(C)OOC(=O)c1ccc(C(=O)c2ccccc2)cc1` [BPB, p-benzoyl tert-butylperbenzoate], the aqueous solubility (usually the concentration that dissolves in the medium under given conditions) came out at 4 µg/mL (≈ 13.4 µM).

Values taken from patent US8840927B2, “Method of making anti-microbial polymeric surfaces” (Covalon Technologies Inc., priority 2001, dated 2014).
